Results taken from patent publication US12522593B2, “Azacycloalkyl carbonyl cyclic amine compound” (Alivexis, Inc., priority 2022, dated 2026).
Where a name gives a salt, the structure may show the parent alone.

Assays:
human recombinant CTSC = human recombinant CTSC (Homo sapiens (Human), UniProt P53634); experiment: CTSC inhibition assay (in vitro), fluorescent substrate GF-AFC; type: biochemical; details: 30 μmol/L GF-AFC, pH 5.0, 25° C.
Description: 1. CTSC Inhibition Assay (In Vitro)
A test specimen was evaluated by a CTSC inhibition assay using a fluorescent substrate GF-AFC (Gly-Phe-7-Amino-4-trifluoromethylcoumarin, MP Biomedical, 03AFC03325). Since the GF-AFC is converted by CTSC to aminotrifluoromethylcoumarin having a specific fluorescence wavelength and the produced amount is proportional to CTSC activity, quantitative analysis was performed by measuring a fluorescence intensity with a plate reader. CTSC inhibition assay for each compound was performed using a polystyrene-made non-adhesive surface-treated black 384 well plate under the following conditions.
A human recombinant CTSC (R&D systems, 1071-CY) was dissolved in a CTSC active cocktail (20 ng/mL of human recombinant cathepsin L (R&D systems, 952-CY, 25 mmol/L MES/NaOH (pH: 6.0), 5 mmol/L dithiothreitol (DTT)) so as to be 100 ng/mL and incubated at 18° C. for 30 minutes. The solution was diluted with a CTSC assay buffer (50 mmol/L MES/NaOH (pH: 5.0), 50 mmol/L NaCl, 0.001% Triton X-100, mmol/L DTT) so as to be 2 ng/mL in a case of performing CTSC inhibition assay.
The test specimen was dissolved in dimethylsulfoxide (DMSO) at 10 mmol/L to prepare a stock solution. In a case where a solution in which the stock solution was diluted 15-fold with DMSO was used as the maximum evaluation concentration (0.667 mmol/L), 5-fold dilution was repeated in DMSO from the solution to prepare a serially diluted solution. 248.8 μL of the CTSC assay buffer was added to 1.12 μL of the serially diluted sample prepared in the DMSO to prepare a solution of a CTSC inhibition assay compound.
The final composition of the CTSC inhibition assay mixture was 0.66 ng/mL activated CTSC, 50 mmol/L MES/NaOH (pH: 5.0), 50 mmol/L NaCl, 0.001% Triton X-100, 5 mmol/L DTT, 30 μmol/L GF-AFC, and 0.15% DMSO, and the procedure was as follows. That is, 4 μL of the compound solution and 4 μL of the 2 ng/mL activated CTSC solution were mixed with each other in a 384 well plate and incubated at 25° C. for 30 minutes. Thereafter, 4 μL of the GF-AFC solution dissolved in the CTSC assay buffer was added to the mixture so as to be 90 μmol/L. After mixing to be uniform, a fluorescence emission intensity at 505 nm in a case of being excited at 390 nm after incubating at 25° C. for 1 hour was measured with a plate reader. A 4-parameter regression analysis was performed with GraphPad Prism (manufactured by GraphPad Software) from a plot of the fluorescence intensity at 505 nm and the sample concentration, and an IC50 value was calculated.
Results of test compounds of Formula (I) are shown in Table 1 as IC50 (nM) values for which 50% inhibition concentration is calculated based on CTSC inhibition (%). In the table, Ex indicates an example number.

CTSC in U937 cells = CTSC in U937 cells (Homo sapiens (Human), UniProt P53634); experiment: Intracellular CTSC inhibition assay (in vitro), LLOMe-induced cell death in U937 cells; type: cell-based; details: 3 hours culture, CellTiter-Glo
Chain of CTSC in U937 cells (P53634 25-463): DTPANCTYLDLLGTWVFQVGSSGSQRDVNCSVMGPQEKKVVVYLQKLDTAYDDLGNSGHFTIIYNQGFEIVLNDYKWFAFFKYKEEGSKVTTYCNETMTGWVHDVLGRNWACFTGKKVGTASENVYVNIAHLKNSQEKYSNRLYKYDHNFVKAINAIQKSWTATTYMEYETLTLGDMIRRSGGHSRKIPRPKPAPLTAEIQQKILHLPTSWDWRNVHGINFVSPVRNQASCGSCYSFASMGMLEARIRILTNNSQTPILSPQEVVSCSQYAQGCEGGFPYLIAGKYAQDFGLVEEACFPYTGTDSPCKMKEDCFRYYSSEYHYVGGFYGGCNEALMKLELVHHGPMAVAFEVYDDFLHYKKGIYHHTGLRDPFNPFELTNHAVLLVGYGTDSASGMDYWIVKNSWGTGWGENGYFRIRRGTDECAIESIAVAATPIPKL
Description: 2. Intracellular CTSC Inhibition Assay (In Vitro)
A test specimen was evaluated by a degree of cell death in a case where a substrate LLOMe (L-Leucyl-L-Leucine methyl ester, hydrobromide salt, Sigma, 555045152) was added to U937 cells. The LLOMe is taken up into the cells by endocytosis and cleaved by CTSC. A product thereof induces lysosomal damage in cells and causes cell death in leukocytes and the like. Therefore, since the degree of cell death correlates with an amount of degradation of LLOMe, that is, with CTSC activity, by quantitatively analyzing the cell death, CTSC inhibitory activity of the test specimen in the cell was determined. CTSC inhibition assay was performed using a polystyrene-made white 384 well plate.
As the test specimen, a stock solution dissolved in DMSO was prepared so as to be 0.2 mmol/L, and in a case where a solution in which the stock solution was diluted 50-fold with a RPMI-1640 medium including 10% FBS was used as the maximum evaluation concentration (4000 nmol/L), a serially diluted solution was prepared by diluting the solution 3-fold with the medium. Thereafter, a 4-fold concentrated test specimen solution with the target final concentration was prepared.
U937 cells were cultured in a RPMI-1640 medium including 10% FBS, and diluted to prepare 90,000 cells/mL of cell suspension on the day of assay. 10 μL of the cell suspension was seeded per well. Next, 10 μL of the test specimen solution having a concentration 4 times the target final concentration was added thereto, and the mixture was allowed to stand for 30 minutes. Thereafter, 20 μL of a 300 μmol/L LLOMe solution dissolved in a RPMI-1640 medium including 10% FBS was added thereto, and the cells were cultured for 3 hours. After completion of the culture, 40 μL of CellTiter-Glo (registered trademark) reagent (Promega, G7570) was added to each well and mixed. After 15 minutes, 20 μL of the reaction solution in each well was transferred to a white 384 well plate, and a chemiluminescence intensity was measured with a plate reader. A 4-parameter regression analysis was performed with GraphPad Prism (manufactured by GraphPad Software) from a plot of the luminescence intensity and the sample concentration, and an IC50 value was calculated.
Results of test compounds of Formula (1) are shown in Table 2 as IC50 (nM) values for which 50% inhibition concentration is calculated based on CTSC inhibition (%). In the table, Ex indicates an example number.

Chain of human recombinant CTSC (P53634 25-134): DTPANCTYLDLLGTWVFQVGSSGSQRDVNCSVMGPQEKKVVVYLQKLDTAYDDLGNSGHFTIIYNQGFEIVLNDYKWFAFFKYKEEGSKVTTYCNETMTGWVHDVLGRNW
Chain of human recombinant CTSC (P53634 231-394): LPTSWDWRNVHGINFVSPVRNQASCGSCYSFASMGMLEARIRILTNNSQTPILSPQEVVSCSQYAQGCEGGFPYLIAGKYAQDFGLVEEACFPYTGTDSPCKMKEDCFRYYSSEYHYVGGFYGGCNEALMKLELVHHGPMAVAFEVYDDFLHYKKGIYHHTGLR
Chain of human recombinant CTSC (P53634 395-463): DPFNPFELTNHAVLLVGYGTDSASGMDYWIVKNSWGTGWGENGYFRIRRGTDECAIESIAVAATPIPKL

IC50 (human recombinant CTSC) [nM]	Structure (SMILES)	IC50 (CTSC in U937 cells) [nM]
1.01	CC(C)C1(C(=O)N(C)CC2CCC(F)(F)CC2)CN(C(=O)[C@@H]2C[C@@H](O)C3(CCC3)CN2)C1 [Example 17]	21.4
1.86	CC1(C)CN[C@H](C(=O)N2CCC(c3noc(C4CCC(F)(F)CC4)n3)(C3CC3)CC2)C[C@H]1O [Example 80, (4-Cyclopropyl-4-(5-(4,4-Difluorocyclohexyl)-1,2,4-oxadiazol-3-yl)piperidin-1-yl)((2S,4R)-4-hydroxy-5,5-dimethylpiperidin-2-yl)methanone]	0.65
0.87	O=C([C@@H]1C[C@@H](O)C2(CCC2)CN1)N1CCC(c2noc(C3CCC(F)(F)CC3)n2)(C2CC2)CC1 [Example 74]	0.38
1.79	O=C([C@@H]1C[C@@H](O)C2(CCC2)CN1)N1CCC(c2nnn(C3CCC(F)(F)CC3)n2)CC1 [Example 97]	3.26
9.48	O=C([C@@H]1C[C@@H](O)C2(CCC2)CN1)N1CCC(c2nnn(Cc3ccccc3)n2)CC1 [Example 102]	9.46
1.63	CC(C)C1(c2nc(C3CC(F)(F)C3)no2)CCN(C(=O)[C@@H]2C[C@@H](O)C3(CCC3)CN2)CC1 [Example 1, (4-(3-(3,3-Difluorocyclobutyl)-1,2,4-oxadiazol-5-yl)-4-isopropylpiperidin-1-yl)((7S,9R)-9-hydroxy-6-azaspiro[3.5]nonan-7-yl)methanone]	0.49
1.93	O=C([C@@H]1C[C@@H](O)C2(CCC2)CN1)N1CCC(c2nccc(-c3ccc(F)cc3)n2)CC1 [Example 101]	0.96
0.83	CC(C)C1(C(=O)NCC2CCC(F)(F)CC2)CN(C(=O)[C@@H]2C[C@@H](O)C3(CCC3)CN2)C1 [Example 20]	227
13.3	O=C([C@@H]1C[C@@H](O)C2(CCC2)CN1)N1CCC(C(=O)N2CCO[C@H](C(F)(F)F)C2)(C(F)(F)F)CC1 [Example 39]	7.18
4.43	C[C@]1(F)C[C@H](c2nc(C3(C(F)(F)F)CCN(C(=O)[C@@H]4C[C@@H](O)C5(CCC5)CN4)CC3)no2)C1 [Example 49]	0.35
3.17	CC(C)C1(c2nnc(C3CCC(F)(F)CC3)o2)CN(C(=O)[C@@H]2C[C@@H](O)C3(CCC3)CN2)C1 [Example 16, (3-(5-(4,4-difluorocyclohexyl)-1,3,4-oxadiazol-2-yl)-3-isopropylazetidine-1-yl)((7S,9R)-9-hydroxy-6-azaspiro[3.5]nonan-7-yl)methanone trifluoroacetate]	19.2
6.39	O=C([C@@H]1C[C@@H](O)C2(CCC2)CN1)N1CCC(c2noc(C3CCCO3)n2)(C(F)(F)F)CC1 (some centres unmarked) [Example 62]	1.62
3.54	O=C([C@@H]1CC[C@@]2(CCO2)CN1)N1CCC(c2ccc(F)cc2)(c2nnc(C3CCC(F)(F)CC3)o2)CC1 [Example 87]	4.02
3.88	CC(C)C1(c2nc(C3CC(F)(F)C3)no2)CCN(C(=O)[C@@H]2C[C@@H](O)C(C)(C)CN2)CC1 [Example 54]	1.46
19.6	O=C([C@@H]1CC[C@@]2(CCO2)CN1)N1CCC(c2noc(C3CC(F)(F)C3)n2)(C(F)(F)F)CC1 [Example 40]	37.9
1.23	CC(C)C1(c2nc(C3CCC(F)(F)CC3)no2)CN(C(=O)[C@@H]2C[C@@H](O)C3(CCC3)CN2)C1 [Example 19]	0.98
8.16	O=C([C@@H]1C[C@@H](O)C2(CCC2)CN1)N1CCC(C(=O)N2CC[C@@H](C(F)(F)F)C2)(C(F)(F)F)CC1 [Example 52]	10.2
1.03	O=C([C@@H]1C[C@@H](O)C2(CCC2)CN1)N1CCC(C(=O)NCC2CCC(F)(F)CC2)(C(F)(F)F)CC1 [Example 22]	20.8
28.4	O=C([C@@H]1C[C@@H](O)C2(CCC2)CN1)N1CCC(C(=O)N2CCO[C@@H](C(F)(F)F)C2)(C(F)(F)F)CC1 [Example 37]	10.1
